Reference: patent US20170334899A1, “AMINO-SUBSTITUTED ISOTHIAZOLES” (Bayer Pharma Aktiengesellschaft, priority 2014, published 2017)

Each compound was assayed against T1, human kinase Mps-1 (Homo sapiens, UniProt P33981) (assay: Mps-1 kinase assay (TR-FRET)). Settings: Mps-1 TR-FRET kinase assay; avg; read-out: Mps1 avg (IC50 [mol/l]).
T1 construct: N-terminally GST-tagged human full length recombinant Mps-1 kinase; GST (N); purchased Invitrogen, Karslruhe, Germany PV4071
T1 sequence (P33981 1-857): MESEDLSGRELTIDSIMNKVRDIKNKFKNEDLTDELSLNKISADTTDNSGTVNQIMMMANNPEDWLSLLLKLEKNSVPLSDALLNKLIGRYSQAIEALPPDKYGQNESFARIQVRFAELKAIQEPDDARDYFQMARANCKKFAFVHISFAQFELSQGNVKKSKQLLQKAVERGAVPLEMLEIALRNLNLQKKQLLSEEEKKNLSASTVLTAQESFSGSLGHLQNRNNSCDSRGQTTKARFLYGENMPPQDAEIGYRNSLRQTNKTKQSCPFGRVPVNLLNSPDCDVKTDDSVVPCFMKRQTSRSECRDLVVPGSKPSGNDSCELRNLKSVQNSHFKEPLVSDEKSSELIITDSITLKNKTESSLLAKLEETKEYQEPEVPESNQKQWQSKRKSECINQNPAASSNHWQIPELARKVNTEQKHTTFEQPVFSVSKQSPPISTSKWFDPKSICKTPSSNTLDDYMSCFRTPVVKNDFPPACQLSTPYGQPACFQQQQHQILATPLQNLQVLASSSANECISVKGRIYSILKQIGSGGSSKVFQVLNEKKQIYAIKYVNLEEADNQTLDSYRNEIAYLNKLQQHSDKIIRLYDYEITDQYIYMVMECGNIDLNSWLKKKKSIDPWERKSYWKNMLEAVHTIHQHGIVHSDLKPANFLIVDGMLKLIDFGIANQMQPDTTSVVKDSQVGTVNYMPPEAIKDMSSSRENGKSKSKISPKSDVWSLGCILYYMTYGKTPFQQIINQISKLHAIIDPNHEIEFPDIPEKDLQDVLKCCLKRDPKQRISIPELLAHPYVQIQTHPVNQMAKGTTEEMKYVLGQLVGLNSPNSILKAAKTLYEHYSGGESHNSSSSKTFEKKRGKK
Assay type: biochemical
Experimental: The human kinase Mps-1 phosphorylates a biotinylated substrate peptide. Detection of the phosphorylated product is achieved by time-resolved fluorescence resonance energy transfer (TR-FRET) from Europium-labelled anti-phospho-Serine/Threonine antibody as donor to streptavidin labelled with cross-linked allophycocyanin (SA-XLent) as acceptor. Compounds are tested for their inhibition of the kinase activity.
N-terminally GST-tagged human full length recombinant Mps-1 kinase (purchased from Invitrogen, Karslruhe, Germany, cat. no PV4071) was used. As substrate for the kinase reaction a biotinylated peptide of the amino-acid sequence biotin-Ahx-PWDPDDADITEILG (C-terminus in amide form, purchased from Biosyntan GmbH, Berlin) was used.
For the assay 50 nl of a 100-fold concentrated solution of the test compound in DMSO was pipetted into a black low volume 384we11 microtiter plate (Greiner Bio-One, Frickenhausen, Germany), 2 μl of a solution of Mps-1 in assay buffer [0.1 mM sodium-ortho-vanadate, 10 mM MgCl2,2 mM DTT, 25 mM Hepes pH 7.7, 0.05% BSA (w/v), 0.001% Pluronic F-127] were added and the mixture was incubated for 15 min at 22° C. to allow pre-binding of the test compounds to Mps-1 before the start of the kinase reaction. Then the kinase reaction was started by the addition of 3 μl of a solution of 16.7 μM adenosine-tri-phosphate (ATP, 16.7 μM=>final conc. in the 5 μl assay volume is 10 μM) and peptide substrate (1.67 μM=>final conc. in the 5 μl assay volume is 1 μM) in assay buffer and the resulting mixture was incubated for a reaction time of 60 min at 22° C. The concentration of Mps-1 in the assay was adjusted to the activity of the enzyme lot and was chosen appropriate to have the assay in the linear range, typical enzyme concentrations were in the range of about 0.5 nM (final conc. in the 5 μl assay volume). The reaction was stopped by the addition of 5 μl of a solution of TR-FRET detection reagents (100 mM Hepes pH 7.4, 0.1% BSA, 40 mM EDTA, 140 nM Streptavidin-XLent [#61GSTXLB, Fa. Cis Biointernational, Marcoule, France], 1.5 nM anti-phospho(Ser/Thr)-Europium-antibody [#AD0180, PerkinElmer LAS, Rodgau-Jugesheinn, Germany]. Instead of the 1.5 nM anti-phospho(Ser/Thr)-Europium-antibody a mixture of 2 nM unlabeled anti-phospho ser/thr-pro antibody MPM-2 [Millipore cat. #05-368] and 1 nM LANCE EU-W1024 labeled anti-mouse IgG antibody [Perkin-Elmer, product no. AD0077] can be used).
The resulting mixture was incubated 1 h at 22° C. to allow the binding of the phosphorylated peptide to the anti-phospho(Ser/Thr)-Europium-antibody. Subsequently the amount of phosphorylated substrate was evaluated by measurement of the resonance energy transfer from the Europium-labelled anti-phospho(Ser/Thr) antibody to the Streptavidin-XLent. Therefore, the fluorescence emissions at 620 nm and 665 nm after excitation at 350 nm was measured in a Viewlux TR-FRET reader (PerkinElmer LAS, Rodgau-Jugesheinn, Germany). The “blank-corrected normalized ratio” (a Viewlux specific readout, similar to the traditional ratio of the emissions at 665 nm and at 622 nm, in which blank and Eu-donor crosstalk are subtracted from the 665 nm signal before the ratio is calculated) was taken as the measure for the amount of phosphorylated substrate. The data were normalised (enzyme reaction without inhibitor=0% inhibition, all other assay components but no enzyme=100% inhibition).

SMILES | IC50 [µM]
Cc1nsc(Nc2cnc(C(F)(F)F)cn2)c1C(=O)Nc1ccc(C(=O)OC(C)(C)C)cc1 [Example 96, tert-Butyl 4-{[(3-methyl-5-{[5-(trifluoromethyl)pyrazin-2-yl]amino}-1,2-thiazol-4-yl)carbonyl]amino}benzoate] | ≥ 20
CC(=O)N(C)CCOc1ccc(NC(=O)c2c(C)nsc2Nc2nc3c(C(F)(F)F)cccc3s2)cn1 [Example 112, N-(6-{2-[Acetyl(methyl)amino]-ethoxy}pyridin-3-yl)-3-methyl-5-{[4-(trifluoromethyl)-1,3-benzothiazol-2-yl]amino}-1,2-thiazole-4-carboxamide] | ≥ 20
Cc1noc(-c2cccc(NC(=O)c3c(C)nsc3Nc3cnc4ccccc4n3)c2)n1 [Example 106, 3-Methyl-N-[3-(3-methyl-1,2,4-oxadiazol-5-yl)phenyl]-5-(quinoxalin-2-ylamino)-1,2-thiazole-4-carboxamide] | ≥ 20
Cc1nsc(Nc2cnc3ccccc3n2)c1C(=O)Nc1cccc(C(=O)N[C@@H](CCC(N)=O)C(=O)O)c1 [Example 103, N^2-[3-({[3-Methyl-5-(quinoxalin-2-ylamino)-1,2-thiazol-4-yl]carbonyl}amino)-benzoyl]glutamine] | 13
Cc1nsc(Nc2cnc(C(F)(F)F)cn2)c1C(=O)Nc1ccc(OC2CCN(CC(F)F)CC2)nc1 [Example 8, N-(6-{[1-(2,2-Difluoroethyl)piperidin-4-yl]oxy}pyridin-3-yl)-3-methyl-5-{[5-(trifluoromethyl)pyrazin-2-yl]amino}-1,2-thiazole-4-carboxamide] | ≥ 20
Cc1nsc(Nc2cc(C#N)ccn2)c1C(=O)Nc1cccc(C(=O)N2CCCC2)c1 [Example 114, 5-[(4-Cyanopyridin-2-yl)amino]-3-methyl-N-[3-(pyrrolidin-1-ylcarbonyl)phenyl]-1,2-thiazole-4-carboxamide] | ≥ 20
CCNS(=O)(=O)c1ccc(NC(=O)c2c(C)nsc2Nc2cnc3ccccc3n2)cc1 [Example 116, N-[4-(Ethylsulfamoyl)phenyl]-3-methyl-5-(quinoxalin-2-ylamino)-1,2-thiazole-4-carboxamide] | ≥ 20
Cc1nsc(Nc2ccc(C#N)cn2)c1C(=O)Nc1ccc(C(=O)OC(C)(C)C)cc1 [Example 98, tert-Butyl 4-[({5-[(5-cyanopyridin-2-yl)amino]-3-methyl-1,2-thiazol-4-yl}carbonyl)-amino]benzoate] | ≥ 20

Other lines, results leading:

IC50 [µM] | SMILES
> 20 | Cc1nsc(Nc2cnc3ccccc3n2)c1C(=O)Nc1ccc(C(=O)N2CCCN(CC(F)(F)F)CC2)cc1 [Example 159]
> 20 | Cc1nsc(Nc2cnc3ccccc3n2)c1C(=O)Nc1ccc(C(=O)NCCN2CCCC(F)(F)C2)cc1 [Example 156, N-(4-{[2-(3,3-difluoropiperidin-1-yl)ethyl]carbamoyl}phenyl)-3-methyl-5-(quinoxalin-2-ylamino)-1,2-thiazole-4-carboxamide]
≥ 20 | Cc1nsc(Nc2cnc(C(F)(F)F)cn2)c1C(=O)Nc1ccc(OCC2CCN(CC(F)(F)F)C2)nc1 (centres unmarked) [Example 123, 3-Methyl-N-(6-{[1-(2,2,2-trifluoroethyl)pyrrolidin-3-yl]methoxy}pyridin-3-yl)-5-{[5-(trifluoromethyl)pyrazin-2-yl]amino}-1,2-thiazole-4-carboxamide]
> 20 | Cc1nsc(Nc2cnc(C(F)(F)F)cn2)c1C(=O)Nc1ccc(C(=O)NCCN2CCCC(F)(F)C2)cc1 [Example 153, N-(4-{[2-(3,3-difluoropiperidin-1-yl)ethyl]carbamoyl}phenyl)-3-methyl-5-{[5-(trifluoromethyl)pyrazin-2-yl]amino}-1,2-thiazole-4-carboxamide]
> 20 | Cc1nsc(Nc2ccc(C#N)cn2)c1C(=O)Nc1ccc(N[C@@H](C)C(=O)OC(C)(C)C)nc1 [Example 170, tert-butyl N-{5-[({5-[(5-cyanopyridin-2-yl)amino]-3-methyl-1,2-thiazol-4-yl}carbonyl)amino]pyridin-2-yl}alaninate]
> 20 | Cc1nsc(Nc2cnc3ccccc3n2)c1C(=O)Nc1ccc(NC2CC2)nc1 [Example 172, N-[6-(cyclopropylamino)pyridin-3-yl]-3-methyl-5-(quinoxalin-2-ylamino)-1,2-thiazole-4-carboxamide]
> 20 | Cc1nsc(Nc2cnc(C(F)(F)F)cn2)c1C(=O)Nc1ccc(OC2CCN(CC(F)F)CC2)c(F)c1 [Example 164, N-(4-{[1-(2,2-difluoroethyl)piperidin-4-yl]oxy}-3-fluorophenyl)-3-methyl-5-{[5-(trifluoromethyl)pyrazin-2-yl]amino}-1,2-thiazole-4-carboxamide]
> 20 | COc1ccc(NC(=O)c2c(C)nsc2Nc2ccc(C#N)cn2)c(N2CCOCC2)n1 [Example 173, 5-[(5-cyanopyridin-2-yl)amino]-N-[6-methoxy-2-(morpholin-4-yl)pyridin-3-yl]-3-methyl-1,2-thiazole-4-carboxamide]
> 20 | Cc1nsc(Nc2cncc(C(F)(F)F)n2)c1C(=O)Nc1ccc(OCC2CCCN(C(=O)OC(C)(C)C)C2)nc1 (centres unmarked) [Example 166, tert-butyl 3-{[(5-{[(3-methyl-5-{[6-(trifluoromethyl)pyrazin-2-yl]amino}-1,2-thiazol-4-yl)carbonyl]amino}pyridin-2-yl)oxy]methyl}piperidine-1-carboxylate]
> 20 | Cc1nsc(Nc2cnc(C(F)(F)F)cn2)c1C(=O)Nc1ccc(O[C@H]2CCN(CCC(F)(F)F)C[C@H]2F)nc1 [Example 146, N-(6-{[(3R,4S)-3-fluoro-1-(3,3,3-trifluoropropyl)piperidin-4-yl]oxy}pyridin-3-yl)-3-methyl-5-{[5-(trifluoromethyl)pyrazin-2-yl]amino}-1,2-thiazole-4-carboxamide]
> 20 | Cc1nsc(Nc2cnc(C(F)(F)F)cn2)c1C(=O)Nc1ccc(F)c(C(N)=O)c1 [Example 151, N-(3-carbamoyl-4-fluorophenyl)-3-methyl-5-{[5-(trifluoromethyl)pyrazin-2-yl]amino}-1,2-thiazole-4-carboxamide]
18 | Cc1nsc(Nc2cncc(C(F)(F)F)n2)c1C(=O)Nc1ccc(C(=O)NCCN2CCCC(F)C2)cc1 (centres unmarked) [Example 155, N-(4-{[2-(3-fluoropiperidin-1-yl)ethyl]carbamoyl}phenyl)-3-methyl-5-{[6-(trifluoromethyl)pyrazin-2-yl]amino}-1,2-thiazole-4-carboxamide]
